Reference: PubChem BioAssay (NCI)
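Briefly, cells in 96-well plates were exposed to five compound concentrations for 48 h, and endpoints were estimated by linear interpolation. TGI marks complete inhibition of growth.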

Legend:
Assay in all cases: growth of human tumour cells (NCI), 48 h
[1] = test system: MOLT-4 leukemia
[2] = test system: OVCAR-3 ovarian
[3] = test system: OVCAR-8 ovarian
[4] = test system: M19-MEL melanoma
[5] = test system: KM12 colon
[6] = test system: HOP-92 NSCLC
[7] = test system: NCI-H460 lung
[8] = test system: SNB-19 CNS
[9] = test system: NCI-H226 lung
[10] = test system: UO-31 renal
[11] = test system: HCT-15 colon
[12] = test system: A549 NSCLC
[13] = test system: DMS 114 small cell lung
[14] = test system: NCI-H522 lung
[15] = test system: SK-MEL-5 melanoma
[16] = test system: SK-OV-3 ovarian
[17] = test system: MALME-3M melanoma
[18] = test system: EKVX NSCLC
[19] = test system: RXF 393 renal
[20] = test system: UACC-62 melanoma
[21] = test system: SK-MEL-28 melanoma
[22] = test system: KM20L2 colon
[23] = test system: HCT-116 colon
[24] = test system: UACC-257 melanoma
[25] = test system: IGROV1 ovarian
[26] = test system: SF-539 CNS
[27] = test system: M14 melanoma
[28] = test system: CAKI-1 renal
[29] = test system: COLO 205 colon
[30] = test system: U251 CNS
[31] = test system: 786-0 renal
[32] = test system: TK-10 renal
[33] = test system: HOP-18 NSCLC
[34] = test system: OVCAR-4 ovarian
[35] = test system: SF-295 CNS
[36] = test system: K-562 leukemia
[37] = test system: SR leukemia
[38] = test system: DLD-1 colon
[39] = test system: LXFL 529 NSCLC
[40] = test system: HL-60(TB) leukemia
[41] = test system: ACHN renal
[42] = test system: RXF-631 renal
[43] = test system: HOP-62 NSCLC
[44] = test system: SNB-75 CNS
[45] = test system: CCRF-CEM leukemia
[46] = test system: SN12C renal
[47] = test system: HT29 colon
[48] = test system: XF 498 CNS
[49] = test system: SW-620 colon
[50] = test system: SF-268 CNS
[51] = test system: SK-MEL-2 melanoma
[52] = test system: NCI-H23 lung
[53] = test system: RPMI-8226 leukemia
[54] = test system: PC-3 prostate
[55] = test system: SNB-78 CNS
[56] = test system: A498 renal
[57] = test system: OVCAR-5 ovarian
[58] = test system: MDA-MB-435
[59] = test system: DU-145 prostate
[60] = test system: MDA-N
[61] = test system: MDA-MB-231 breast
[62] = test system: T-47D breast
[63] = test system: HCC-2998 colon
[64] = test system: DMS 273 small cell lung

How did the TGI [1] turn out when Cc1cc(C)c(C(=O)/C(=C/c2ccccc2)c2ccccc2)c(C)c1 was run?
The TGI was greater than 100 µM.

What about the TGI [2] of the same compound?
The TGI was greater than 100 µM.

What about the TGI [3] of the same compound?
The TGI was greater than 100 µM.

And the TGI [4]?
The TGI was greater than 100 µM.

And the TGI [5]?
Its TGI is greater than 100 µM.

What about the TGI [6] of the same compound?
Its TGI is greater than 100 µM.

What about the TGI [7] of the same compound?
Its TGI is greater than 100 µM.

What about the TGI [8] of the same compound?
Its TGI is greater than 100 µM.

What about the TGI [9] of the same compound?
Its TGI is greater than 100 µM.

What about the TGI [10] of the same compound?
Its TGI is greater than 100 µM.

And the TGI [11]?
Its TGI is greater than 100 µM.

And the TGI [12]?
Its TGI is greater than 100 µM.

What about the TGI [13] of the same compound?
Its TGI is greater than 100 µM.

And the TGI [14]?
The TGI was 77.2 µM.

And the TGI [15]?
Its TGI is greater than 100 µM.

What about the TGI [16] of the same compound?
Its TGI is greater than 100 µM.

And the TGI [17]?
Its TGI is greater than 100 µM.

And the TGI [18]?
Its TGI is greater than 100 µM.

And the TGI [19]?
The TGI was greater than 100 µM.

What about the TGI [20] of the same compound?
Its TGI is greater than 100 µM.

And the TGI [21]?
Its TGI is greater than 100 µM.

And the TGI [22]?
Its TGI is greater than 100 µM.

What about the TGI [23] of the same compound?
Its TGI is greater than 100 µM.

What about the TGI [24] of the same compound?
Its TGI is greater than 100 µM.

And the TGI [25]?
The TGI was greater than 100 µM.

And the TGI [26]?
The TGI was greater than 100 µM.

And the TGI [27]?
The TGI was greater than 100 µM.

And the TGI [28]?
The TGI was greater than 100 µM.

What about the TGI [29] of the same compound?
Its TGI is greater than 100 µM.

And the TGI [30]?
The TGI was greater than 100 µM.

What about the TGI [31] of the same compound?
The TGI was greater than 100 µM.

And the TGI [32]?
Its TGI is greater than 100 µM.

What about the TGI [33] of the same compound?
Its TGI is greater than 100 µM.

And the TGI [34]?
The TGI was greater than 100 µM.

What about the TGI [35] of the same compound?
Its TGI is greater than 100 µM.

And the TGI [36]?
The TGI was greater than 100 µM.

What about the TGI [37] of the same compound?
Its TGI is greater than 100 µM.

And the TGI [38]?
The TGI was greater than 100 µM.

And the TGI [39]?
Its TGI is greater than 100 µM.

What about the TGI [40] of the same compound?
Its TGI is 90.6 µM.

What about the TGI [41] of the same compound?
Its TGI is greater than 100 µM.

And the TGI [42]?
The TGI was greater than 100 µM.

What about the TGI [43] of the same compound?
Its TGI is greater than 100 µM.

And the TGI [44]?
The TGI was greater than 100 µM.

And the TGI [45]?
The TGI was greater than 100 µM.

And the TGI [46]?
Its TGI is greater than 100 µM.

What about the TGI [47] of the same compound?
The TGI was greater than 100 µM.

And the TGI [48]?
Its TGI is greater than 100 µM.

What about the TGI [49] of the same compound?
Its TGI is greater than 100 µM.

And the TGI [50]?
Its TGI is greater than 100 µM.

And the TGI [51]?
Its TGI is 43.4 µM.

And the TGI [52]?
Its TGI is greater than 100 µM.

What about the TGI [53] of the same compound?
The TGI was greater than 100 µM.

Which results are given for CCCCC1N=CNc2c1ccc1c2[nH]c2ccccc21 (stereo not given)?
TGI [1]: 6.51 µM; TGI [2]: 12.2 µM; TGI [4]: 11.8 µM; TGI [5]: 41.8 µM; TGI [6]: 9.72 µM; TGI [7]: 4.22 µM; TGI [8]: 24.9 µM; TGI [9]: > 61.1 µM; TGI [54]: 3.23 µM; TGI [10]: 21.9 µM; TGI [11]: 4.72 µM; TGI [55]: 38.6 µM; TGI [12]: 10.6 µM; TGI [13]: 4.06 µM; TGI [14]: 3.57 µM; TGI [56]: 29.8 µM; TGI [15]: 2.95 µM; TGI [16]: 11.3 µM; TGI [57]: 9.07 µM; TGI [58]: 3.35 µM; TGI [17]: 10.5 µM; TGI [18]: 21.6 µM; TGI [19]: 2.16 µM; TGI [20]: 8.94 µM; TGI [21]: 24.6 µM; TGI [59]: 5.72 µM; TGI [23]: 3.32 µM; TGI [24]: 3.3 µM; TGI [25]: 8.18 µM; TGI [26]: 7.91 µM; TGI [27]: 6.74 µM; TGI [60]: 3.28 µM; TGI [28]: 9.16 µM; TGI [29]: 3.27 µM; TGI [61]: 3.3 µM; TGI [30]: 16.5 µM; TGI [31]: 3.34 µM; TGI [32]: 10.9 µM; TGI [33]: 22.5 µM; TGI [62]: 3.2 µM; TGI [34]: 8.15 µM; TGI [35]: 7.25 µM; TGI [36]: 5.4 µM; TGI [37]: 4.66 µM; TGI [38]: 6.3 µM; TGI [39]: 3.78 µM; TGI [40]: 3.68 µM; TGI [41]: 5.45 µM; TGI [42]: 5.97 µM; TGI [43]: 9.97 µM; TGI [44]: 5.54 µM; TGI [45]: 5.89 µM; TGI [46]: 7.8 µM; TGI [47]: 3.95 µM; TGI [48]: 3.4 µM; TGI [63]: 3.01 µM; TGI [64]: 3.38 µM; TGI [49]: 3.55 µM; TGI [50]: 29.4 µM; TGI [51]: 8.89 µM; TGI [52]: 11 µM; TGI [53]: 5.13 µM
